pIC50: −log10 of the molar value. “Also recorded” adds a separate entry of the source.
Experiments:
[1] = molecular target: T1, CXCR4 (Homo sapiens, UniProt P61073); assay: Inhibition of CXCR4 mAb-binding to TZM-bl cells; settings: serial dilutions in 1 μg/ml CXCR4 mAb, fixed TZM-bl cells, 40 min on ice
[2] = molecular target: T1, CXCR4; assay: cell-based; settings: TZM-bl, read-out: Inhibition of cell-associated 4DV3-Biot
[3] = tested on: HIV-1 IIIB; assay: HIV-1 entry inhibition assay in TZM-bl reporter cells, X4 strain; format: cell-based

T1 sequence (P61073 whole entry): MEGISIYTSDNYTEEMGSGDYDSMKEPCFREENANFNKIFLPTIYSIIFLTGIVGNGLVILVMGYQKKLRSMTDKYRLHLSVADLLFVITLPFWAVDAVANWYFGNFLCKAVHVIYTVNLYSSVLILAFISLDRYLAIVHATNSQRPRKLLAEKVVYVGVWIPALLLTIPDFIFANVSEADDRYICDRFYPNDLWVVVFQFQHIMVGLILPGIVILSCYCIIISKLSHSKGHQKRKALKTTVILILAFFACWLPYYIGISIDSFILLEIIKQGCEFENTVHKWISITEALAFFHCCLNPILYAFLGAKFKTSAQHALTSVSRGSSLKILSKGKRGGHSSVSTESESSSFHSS

c1cc(CN2CCCNCCNCCCNCC2)ccc1CN1CCCNCCNCCCNCC1 [AMD3100, bicyclam JM-2987]
Inhibition of CXCR4 mAb clone 44708 binding to TZM-bl cells, in words [1]: poor ability to inhibit mAb binding; also recorded: ineffective at the tested concentrations | inhibition at 20 µM [2]: 31% | inhibition at 200 µM [2]: 47% | pIC50 ([3]; Human immunodeficiency virus 1, IIIB, TZM-bl, read-out: IC50 of HIV-1 entry inhibition, X4 strain HIV-1 IIIB): 9.38 | Potency of HIV-1 IIIB entry inhibition relative to 4DV3-FITC ([3]; more potent than 4DV3-FITC, ratio of IC50, TZM-bl cells): 1000 fold
